PubChem BioAssay AID328 (DTP/NCI, 2004)
Several values for one entry are separate records, joined by “and”; a condition that tells them apart may be missing. Identical values can stand only once. Toxic doses and inconclusive results are not listed.

Test system: BDF1 mice, P388 leukemia ip, median survival T/C
Assay: NCI In Vivo Anticancer Drug Screen. Data for tumor model P388 Leukemia (intraperitoneal) in B6D2F1 (BDF1) mice
Details: endpoint: median survival time, higher = longer survival
Outline: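 Steps: implant the tumour, treat one group with compound and another with vehicle, record survival, then divide treated by control.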

[1] = dose: 50.0 mg/kg/injection, schedule: Q01DX009 (ip), vehicle: saline with Tween-80
[2] = dose: 100.0 mg/kg/injection, schedule: Q01DX009 (ip), vehicle: saline with Tween-80
[3] = dose: 25.0 mg/kg/injection, schedule: Q01DX009 (ip), vehicle: Klucel (hydroxypropylcellulose) (HPC)
[4] = dose: 50.0 mg/kg/injection, schedule: Q01DX009 (ip), vehicle: Klucel (hydroxypropylcellulose) (HPC)
[5] = dose: 50.0 mg/kg/injection, schedule: Q04DX003 (ip), vehicle: Klucel (hydroxypropylcellulose) (HPC)
[6] = dose: 100.0 mg/kg/injection, schedule: Q01DX009 (ip), vehicle: Klucel (hydroxypropylcellulose) (HPC)
[7] = dose: 100.0 mg/kg/injection, schedule: Q04DX003 (ip), vehicle: Klucel (hydroxypropylcellulose) (HPC)
[8] = dose: 200.0 mg/kg/injection, schedule: Q04DX003 (ip), vehicle: Klucel (hydroxypropylcellulose) (HPC)
[9] = dose: 100.0 mg/kg/injection, schedule: Q04DX003 (ip), vehicle: saline
[10] = dose: 200.0 mg/kg/injection, schedule: Q04DX003 (ip), vehicle: saline
[11] = dose: 50.0 mg/kg/injection, schedule: Q04DX003 (ip), vehicle: saline with Tween-80
[12] = dose: 100.0 mg/kg/injection, schedule: Q04DX003 (ip), vehicle: saline with Tween-80
[13] = dose: 150.0 mg/kg/injection, schedule: Q04DX003 (ip), vehicle: saline with Tween-80
[14] = dose: 200.0 mg/kg/injection, schedule: Q04DX003 (ip), vehicle: saline with Tween-80
[15] = dose: 400.0 mg/kg/injection, schedule: Q04DX003 (ip), vehicle: saline with Tween-80
[16] = dose: 200.0 mg/kg/injection, schedule: Q01DX009 (ip), vehicle: Klucel (hydroxypropylcellulose) (HPC)
[17] = dose: 6.25 mg/kg/injection, schedule: Q01DX009 (ip), vehicle: saline
[18] = dose: 12.5 mg/kg/injection, schedule: Q01DX009 (ip), vehicle: saline
[19] = dose: 25.0 mg/kg/injection, schedule: Q01DX009 (ip), vehicle: saline
[20] = dose: 50.0 mg/kg/injection, schedule: Q01DX009 (ip), vehicle: saline
[21] = dose: 25.0 mg/kg/injection, schedule: Q01DX009 (ip), vehicle: saline with Tween-80
[22] = dose: 100.0 mg/kg/injection, schedule: Q01DX009 (ip), vehicle: saline
[23] = dose: 200.0 mg/kg/injection, schedule: Q01DX009 (ip), vehicle: saline
[24] = dose: 75.0 mg/kg/injection, schedule: Q01DX009 (ip), vehicle: saline with Tween-80
[25] = dose: 200.0 mg/kg/injection, schedule: Q01DX009 (ip), vehicle: saline with Tween-80
[26] = dose: 400.0 mg/kg/injection, schedule: Q01DX009 (ip), vehicle: saline with Tween-80

CCOc1ccn(CC(=O)c2ccc([N+](=O)[O-])o2)c(=O)n1
T/C [1]: 100 % of control
T/C [2]: 101 % of control

O=C(CCl)N1CCc2ccccc21
T/C [3]: 104 % of control
T/C (dose: 25.0 mg/kg/injection, schedule: Q04DX003 (ip), vehicle: Klucel (hydroxypropylcellulose) (HPC)): 90 % of control
T/C [4]: 100 % of control
T/C [5]: 100 % of control
T/C [6]: 86 % of control
T/C [7]: 95 % of control

CC(=O)Nc1ccc(NC(=O)NCCCl)cc1
T/C [5]: 110 % of control
T/C (dose: 59.0 mg/kg/injection, schedule: Q01DX009 (ip), vehicle: Klucel (hydroxypropylcellulose) (HPC)): 100 % of control
T/C (dose: 88.0 mg/kg/injection, schedule: Q01DX009 (ip), vehicle: Klucel (hydroxypropylcellulose) (HPC)): 100 % of control
T/C [7]: 110 % of control
T/C (dose: 133.0 mg/kg/injection, schedule: Q01DX009 (ip), vehicle: Klucel (hydroxypropylcellulose) (HPC)): 115 % of control
T/C (dose: 133.0 mg/kg/injection, schedule: Q04DX003 (ip), vehicle: Klucel (hydroxypropylcellulose) (HPC)): 90 % of control and 100 % of control
T/C [8]: 90 % of control and 100 % of control
T/C (dose: 300.0 mg/kg/injection, schedule: Q04DX003 (ip), vehicle: Klucel (hydroxypropylcellulose) (HPC)): 90 % of control

NS(=O)(=O)c1ccc(N=Nc2nc3ncnc(SCc4cccs4)c3[nH]2)cc1
T/C (dose: 100.0 mg/kg/injection, schedule: Q01DX009 (ip), vehicle: other): 95 % of control
T/C [9]: 104 % of control
T/C (dose: 200.0 mg/kg/injection, schedule: Q01DX009 (ip), vehicle: other): 118 % of control
T/C [10]: 104 % of control
T/C (dose: 400.0 mg/kg/injection, schedule: Q01DX009 (ip), vehicle: other): 86 % of control
T/C (dose: 400.0 mg/kg/injection, schedule: Q04DX003 (ip), vehicle: saline): 108 % of control

Cc1nc(N)c(Cl)nc1C
T/C [11]: 102 % of control and 104 % of control
T/C [12]: 103 % of control
T/C [13]: 103 % of control
T/C [14]: 95 % of control and 104 % of control
T/C [15]: 104 % of control

COc1ccc(-c2oc3cc(O)cc(O)c3c(=O)c2OC)cc1O
T/C (dose: 10.0 mg/kg/injection, schedule: Q01DX010 (ip), vehicle: saline): 100 % of control
T/C (dose: 20.0 mg/kg/injection, schedule: Q01DX010 (ip), vehicle: saline): 100 % of control
T/C (dose: 40.0 mg/kg/injection, schedule: Q01DX010 (ip), vehicle: saline): 109 % of control

O=C1C(Cl)CCCCC1Cl (stereo not drawn)
T/C [4]: 100 % of control
T/C [6]: 100 % of control
T/C [16]: 115 % of control

O=C(O)c1cc(N=Nc2ccccc2)ccc1O
T/C [11]: 104 % of control
T/C [12]: 100 % of control

O=C1c2ccccc2C(=O)N1CNc1ccc(Cc2ccc(NCN3C(=O)c4ccccc4C3=O)c(Cl)c2)cc1Cl
T/C [6]: 100 % of control
T/C [7]: 100 % of control
T/C [16]: 100 % of control
T/C [8]: 95 % of control
T/C (dose: 400.0 mg/kg/injection, schedule: Q01DX009 (ip), vehicle: Klucel (hydroxypropylcellulose) (HPC)): 90 % of control
T/C (dose: 400.0 mg/kg/injection, schedule: Q04DX003 (ip), vehicle: Klucel (hydroxypropylcellulose) (HPC)): 95 % of control

COC(=O)C(CCSC)NC(=O)CNC(=O)OC(C)(C)C (stereo not drawn)
T/C (dose: 50.0 mg/kg/injection, schedule: Q01DX005 (ip), vehicle: saline with Tween-80): 100 % of control
T/C (dose: 100.0 mg/kg/injection, schedule: Q01DX005 (ip), vehicle: saline with Tween-80): 105 % of control
T/C (dose: 200.0 mg/kg/injection, schedule: Q01DX005 (ip), vehicle: saline with Tween-80): 102 % of control

C=CCN(CC=C)CCN(CC)CC
T/C [17]: 111 % of control
T/C [18]: 101 % of control
T/C [19]: 109 % of control
T/C [20]: 101 % of control

O=[N+]([O-])c1ccc(N2CCOCC2)c2c1no[n+]2[O-]
T/C [17]: 95 % of control
T/C [18]: 100 % of control
T/C [19]: 108 % of control
T/C (dose: 32.0 mg/kg/injection, schedule: Q04DX003 (ip), vehicle: saline with Tween-80): 150 % of control
T/C (dose: 64.0 mg/kg/injection, schedule: Q04DX003 (ip), vehicle: saline with Tween-80): 160 % of control

Cc1onc(-c2c(Cl)cccc2Cl)c1C(=O)Nc1ccccc1CC1c2ccccc2CCN1C (stereo not drawn)
T/C (dose: 12.5 mg/kg/injection, schedule: Q01DX009 (ip), vehicle: Klucel (hydroxypropylcellulose) (HPC)): 96 % of control
T/C [3]: 99 % of control
T/C [4]: 89 % of control and 102 % of control

COc1ccc2[nH]c(-c3ccccc3)c(-c3ccccc3)c2c1
T/C [21]: 95 % of control
T/C [1]: 90 % of control
T/C [2]: 90 % of control

CC(CC(=N)N)NC(=O)C1CCC(N)=N1 (stereo not drawn)
T/C (dose: 150.0 mg/kg/injection, schedule: Q01DX009 (ip), vehicle: saline): 98 % of control
T/C (dose: 300.0 mg/kg/injection, schedule: Q01DX009 (ip), vehicle: saline): 98 % of control

NC(=O)NN=C1COC(c2ccccc2)OC1 (stereo not drawn)
T/C [20]: 110 % of control
T/C [22]: 110 % of control
T/C [9]: 116 % of control
T/C [23]: 91 % of control
T/C [10]: 104 % of control

CC1(c2cccs2)C(=O)NC(=O)N1C(=O)CCl (stereo not drawn)
T/C (dose: 12.5 mg/kg/injection, schedule: Q01DX009 (ip), vehicle: saline with Tween-80): 101 % of control
T/C [21]: 88 % of control
T/C [1]: 105 % of control
T/C [11]: 104 % of control
T/C [24]: 90 % of control
T/C [2]: 106 % of control
T/C [12]: 94 % of control
T/C (dose: 150.0 mg/kg/injection, schedule: Q01DX009 (ip), vehicle: saline with Tween-80): 105 % of control
T/C [14]: 97 % of control

S=c1cc(-c2ccco2)ss1
T/C [21]: 112 % of control
T/C [1]: 95 % of control
T/C [2]: 98 % of control
T/C [12]: 110 % of control
T/C [25]: 102 % of control
T/C [14]: 100 % of control
T/C [26]: 107 % of control
T/C [15]: 101 % of control

CCCCCCC(=O)NC1=C(N2CC2)C(=O)C(NC(=O)CCCCCC)=C(N2CC2)C1=O
T/C [3]: 182 % of control
T/C [19]: 234 % of control
T/C [4]: 208 % of control
T/C [20]: 241 % of control
T/C (dose: 66.0 mg/kg/injection, schedule: Q04DX003 (ip), vehicle: saline with Tween-80): 166 % of control
T/C [6]: 154 % of control
T/C [22]: 328 % of control
T/C [12]: 191 % of control and 200 % of control
T/C [13]: 200 % of control
T/C [23]: 107 % of control
T/C [14]: 154 % of control
T/C [15]: 95 % of control

O=[N+]([O-])c1ccccc1C(c1ccc2ccccc2c1O)N1CCOCC1 (stereo not drawn)
T/C (dose: 33.0 mg/kg/injection, schedule: Q01DX001 (ip), vehicle: saline with Tween-80): 100 % of control
T/C (dose: 50.0 mg/kg/injection, schedule: Q01DX001 (ip), vehicle: saline sonified): 163 % of control
T/C (dose: 50.0 mg/kg/injection, schedule: Q01DX001 (ip), vehicle: saline with Tween-80): 100 % of control
T/C (dose: 75.0 mg/kg/injection, schedule: Q01DX001 (ip), vehicle: saline with Tween-80): 100 % of control
T/C (dose: 100.0 mg/kg/injection, schedule: Q01DX001 (ip), vehicle: saline sonified): 109 % of control
T/C (dose: 200.0 mg/kg/injection, schedule: Q01DX001 (ip), vehicle: saline sonified): 95 % of control

O=C(Nc1ccc(Cl)c(Cl)c1)Nc1cc(Cl)ccc1Sc1ccc(Cl)cc1S(=O)(=O)O
T/C [21]: 109 % of control
T/C [1]: 95 % of control
T/C [2]: 90 % of control

Clc1ccc(COC(Cn2ccnc2)c2ccc(Cl)cc2Cl)c(Cl)c1 (stereo not drawn)
T/C (dose: 18.7 mg/kg/injection, schedule: Q01DX009 (ip), vehicle: saline with Tween-80): 118 % of control
T/C [24]: 118 % of control
T/C [25]: 108 % of control
T/C [26]: 108 % of control
